ChEMBL document CHEMBL1137069, “Design, synthesis and anti-microbial activity of 1H-pyrazole carboxylates” (2004)
“And” between values parts separate entries of the source, which are not always exact repeats. Equal entries are not always repeated.

What was measured:
Type in all cases: functional
Fusarium oxysporum [1] = assay: Antifungal activity against Fusarium oxysporum was measured as mycelial growth at 0.1 mg/mL concentration
Thanatephorus cucumeris [2] = assay: Antifungal activity against Rhizoctonia solani was determined at 0.1 mg/mL concentration
Staphylococcus aureus [3] = assay: Antibacterial activity against Staphylococcus aureus was measured as area of inhibition zone at 0.1 mg/mL concentration
Staphylococcus aureus [4] = assay: Antibacterial activity against Staphylococcus aureus was determined at 0.5 mg/mL concentration
Enterococcus faecalis [5] = assay: Antibacterial activity against […] was determined at 0.5 mg/mL concentration
Enterococcus faecalis [6] = assay: Antibacterial activity against […] was determined at 0.1 mg/mL concentration
Staphylococcus aureus [7] = assay: Antibacterial activity against Staphylococcus aureus was determined at 0.1 mg/mL concentration
Alternaria alternata [8] = assay: Antifungal activity against Alternaria alternata was determined at 0.1 mg/mL concentration
Thanatephorus cucumeris [9] = assay: Antifungal activity against Rhizoctonia solani was determined at 0.5 mg/mL concentration
[10] = Antifungal activity against Bipolaris oryzae was determined at 0.5 mg/mL concentration
Alternaria alternata [11] = assay: Antifungal activity against Alternaria alternata was measured as mycelial growth at 0.1 mg/mL concentration
Pseudomonas aeruginosa [12] = assay: Antibacterial activity against Pseudomonas aeruginosa was determined at 0.1 mg/mL concentration
[13] = Antifungal activity against Bipolaris oryzae was determined at 0.1 mg/mL concentration
Thanatephorus cucumeris [14] = assay: Antifungal activity against Rhizoctonia solani was measured as mycelial growth at 0.5 mg/mL concentration
Escherichia coli [15] = assay: Antibacterial activity against Escherichia coli was determined at 0.1 mg/mL concentration
Fusarium oxysporum [16] = assay: Antifungal activity against Fusarium oxysporum was measured as mycelial growth at 0.5 mg/mL concentration
Curvularia lunata [17] = assay: Antifungal activity against Curvularia lunata was measured as mycelial growth at 0.5 mg/mL concentration
Alternaria alternata [18] = assay: Antifungal activity against Alternaria alternata was measured as mycelial growth at 0.5 mg/mL concentration
Alternaria alternata [19] = assay: Antifungal activity against Alternaria alternata was determined at 0.5 mg/mL concentration
[20] = Antifungal activity against Bipolaris oryzae was measured as mycelial growth at 0.1 mg/mL concentration
Curvularia lunata [21] = assay: Antifungal activity against Curvularia lunata was determined at 0.1 mg/mL concentration
[22] = Antibacterial activity against Escherichia coli was measured as area of inhibition zone at 0.1 mg/mL concentration
[23] = Antifungal activity against Bipolaris oryzae was measured as mycelial growth at 0.5 mg/mL concentration
Pseudomonas aeruginosa [24] = assay: Antibacterial activity against Pseudomonas aeruginosa was determined at 0.5 mg/mL concentration
Fusarium oxysporum [25] = assay: Antifungal activity against Fusarium oxysporum was determined at 0.1 mg/mL concentration
Escherichia coli [26] = assay: Antibacterial activity against Escherichia coli was determined at 0.5 mg/mL concentration
Curvularia lunata [27] = assay: Antifungal activity against Curvularia lunata was determined at 0.5 mg/mL concentration
Enterococcus faecalis [28] = assay: Antibacterial activity against […] was measured as area of inhibition zone at 0.1 mg/mL concentration
Pseudomonas aeruginosa [29] = assay: Antibacterial activity against Pseudomonas aeruginosa was measured as area of inhibition zone at 0.1 mg/mL concentration
Fusarium oxysporum [30] = assay: Antifungal activity against Fusarium oxysporum was determined at 0.5 mg/mL concentration
Thanatephorus cucumeris [31] = assay: Antifungal activity against Rhizoctonia solani was measured as mycelial growth at 0.1 mg/mL concentration
Curvularia lunata [32] = assay: Antifungal activity against Curvularia lunata was measured as mycelial growth at 0.1 mg/mL concentration

CCOC(=O)c1cn(-c2ccc([N+](=O)[O-])cc2[N+](=O)[O-])nc1-c1ccccc1
Mycelial growth (Fusarium oxysporum [1]): 5.3 cm
inhibition at 100 µg/mL (Thanatephorus cucumeris [2]): 11.1%
Inhibition Zone (Staphylococcus aureus [3]): 7.6 cm and 3.6 cm
inhibition at 500 µg/mL (Staphylococcus aureus [4]): 84.4%
inhibition at 500 µg/mL (Enterococcus faecalis [5]): 82.2%
inhibition at 100 µg/mL (Enterococcus faecalis [6]): 47.8%
inhibition at 100 µg/mL (Staphylococcus aureus [7]): 40%
inhibition at 100 µg/mL (Alternaria alternata [8]): 38.9%
inhibition at 500 µg/mL (Thanatephorus cucumeris [9]): 26.6%
inhibition at 500 µg/mL [10]: 51.1%
Mycelial growth (Alternaria alternata [11]): 5.5 cm
inhibition at 100 µg/mL (Pseudomonas aeruginosa [12]): 20%
inhibition at 100 µg/mL [13]: 37.8%
Mycelial growth (Thanatephorus cucumeris [14]): 6.6 cm
inhibition at 100 µg/mL (Escherichia coli [15]): 43.3%
Mycelial growth (Fusarium oxysporum [16]): 3 cm
Mycelial growth (Curvularia lunata [17]): 3.8 cm
Mycelial growth (Alternaria alternata [18]): 3.8 cm
inhibition at 500 µg/mL (Alternaria alternata [19]): 57.8%
Mycelial growth [20]: 5.6 cm
inhibition at 100 µg/mL (Curvularia lunata [21]): 37.8%
Inhibition Zone [22]: 4.3 cm and 7.2 cm
zone of inhibition at 100 µg/mL ([22]; Escherichia coli): 39 mm
Mycelial growth [23]: 4.4 cm
inhibition at 500 µg/mL (Pseudomonas aeruginosa [24]): 24.4%
inhibition at 100 µg/mL (Fusarium oxysporum [25]): 41.1%
inhibition at 500 µg/mL (Escherichia coli [26]): 80%
inhibition at 500 µg/mL (Curvularia lunata [27]): 57.8%
zone of inhibition at 100 µg/mL (Enterococcus faecalis [28]): 74 mm
Inhibition Zone (Pseudomonas aeruginosa [29]): 2.2 cm
zone of inhibition at 100 µg/mL (Pseudomonas aeruginosa [29]; Pseudomonas aeruginosa): 18 mm
inhibition at 500 µg/mL (Fusarium oxysporum [30]): 66.7%
Mycelial growth (Thanatephorus cucumeris [31]): 8 cm
Mycelial growth (Curvularia lunata [32]): 5.6 cm
